Experimental data taken from US7560487B2, “Use of (R)—ibuprofen methanesulfonamide and salts thereof in the treatment and prevention of rejection reactions of transplanted organs” (Dompé Pha.r.ma S.p.A., priority 2001, dated 2009).
Where “and” joins values, the source holds several entries; their conditions need not be identical. Equal values may be shown once.

Columns and labels:
IL-8 = settings: in vitro; described in WO 00/24710; cited from earlier work
[1] = tested on: rats receiving syngeneic kidney transplant; assay: Plasma creatinine after syngeneic kidney transplant (cold ischemia/reperfusion); assay type: in vivo, Lewis rats; settings: for Plasma Creatinine 16 h: 16 h after transplant; for Plasma Creatinine 16 h / Plasma Creatinine 24 h: 15 mg/kg; for Plasma Creatinine 24 h: 24 h after transplant
Experimental: (§1) Adult male Lewis rats (RT11) (Charles River, Calco Italia S.p.A, Italy) were used. All animals were allowed free access to food and water. The study was performed in a syngeneic kidney transplant model using such rats as donor and graft recipients. Donor animals were anaesthetized with leptofen. The left kidney was prepared by freeing the ureter from the attachments. The renal artery was separated from the renal vein by dissection. The donor kidney and ureter were removed “en bloc” and flushed with Belzer (UW) containing 1000 U/ml of heparin. Then the kidney was placed in an iced Belzer (UW) solution for 4-6 hours (cold ischemia) until transplant. Recipients were prepared by removal of the left kidney. Animal treatment with DF 1681B is summarized below. Kidney grafts were washed with saline solution before transplant. An anastomosis was created between the recipient and the donor renal artery as well as renal vein with end-to-end anastomosis. Vascular clamps were released after 30 minutes (warm ischemia). Donor and recipient ureters were attached end-to-end. The native right kidney was then removed. Animals were placed in individual metabolic cages for measurements of daily urine output as an index of renal function recovery. After 16 and 24 hours, renal function was assessed by measuring plasma creatinine concentration. Twenty-four hours after kidney transplantation, the animals were sacrificed. The kidney graft was removed, cut in slices and put in Dubosq-Brazil solution for the analysis of conventional histology by light microscopy. Moreover, additional kidney fragments were frozen in liquid nitrogen and used for immunohistochemical analysis of inflammatory cell infiltrate (polymorphonuclear cells, MHC class II positive cells).
(§2) Group 1 (n.=3) rats recipients of a kidney graft exposed to 4 hours cold ischemia and treated with the IL-8 inhibitor DF 1681B.
(§3) Group 2 (n.=3) rats recipients of a kidney graft exposed to 4 hours cold ischemia and treated with the vehicle.
(§4) Group 3 (n.=3) rats recipients of a kidney graft exposed to 6 hours cold ischemia and treated with the IL-8 inhibitor DF 1681B.
(§5) Group 4 (n.=3) rats recipients of a kidney graft exposed to 6 hours cold ischemia and treated with the vehicle.
(§6) The recipients were pretreated the day before the experiment (15 mg/kg s.c.). The animals received an intravenous injection of DF 1681B (15 mg/kg) immediately before reperfusion of the transplanted kidney. Additional administration of the compound (15 mg/kg s.c.) was performed 2 hours after transplantation. Control animals were given vehicle at the same time points and using the same administration method as for animals treated with DF 1681B.
(§7) Data were analyzed using the non-parametric Kruskal-Wallis test for multiple comparisons or the Tukey-Cicchetti test.

[2] = tested on: rats receiving syngeneic kidney transplant; assay: Immunohistochemical granulocyte count in transplanted kidney, syngeneic transplant; assay type: in vivo, Lewis rats; parameters: Granulocytes Intravasc.: unit not given here; settings: for Granulocytes Inrterstitial / Granulocytes Intraglom / Granulocytes Intravasc. / Granulocytes Periglom. / Granulocytes Perivasc.: 24 h post-transplant
Experimental: as §1, §2, §3, §4, §5, §6, §7

[3] = tested on: rats receiving syngeneic kidney transplant; assay: MHC II positive interstitial cell count in transplanted kidney, syngeneic transplant; assay type: in vivo, Lewis rats; parameters: MHC II+ interstitial cells: unit not given here
Experimental: as §1, §2, §3, §4, §5, §6, §7

[4] = tested on: rats receiving syngeneic kidney transplant; assay: Semi-quantitative histological score for renal damage, syngeneic transplant; assay type: in vivo, Lewis rats
Experimental: as §1, §2, §3, §4, §5, §6, §7

[5] = tested on: rats receiving allogeneic kidney transplant; assay: Plasma creatinine after allogeneic kidney transplant; assay type: in vivo, Brown Norway rats; settings: for Plasma Creatinine 16 h / Plasma Creatinine 24 h: allogeneic, 6 h cold ischemia
Experimental: The following experimental group of animals were considered:
Group 1 (n=9) Brown Norway rats recipients of a kidney graft of Lewis rats exposed to 6 hours cold ischemia and treated with vehicle.
Group 2 (n=5) Brown Norway rats recipients of a kidney graft of Lewis rats exposed to 6 hours cold ischemia and treated with the IL-8 inhibitor DF 1681B.
as §6, with “experiment (20” for “experiment (15”, “The animal” for “The animals”, “1681B (20” for “1681B (15”, “compound (20” for “compound (15”
as §7

mouse model = assay: Chemotaxis in vivo in a mouse model
[6] = tested on: models of ischemia/reperfusion injury; assay: PMN infiltration in models of ischemia/reperfusion injury, mice; assay type: in vivo
[7] = tested on: models of ischemia/reperfusion injury; assay: PMN infiltration in models of ischemia/reperfusion injury, rats; assay type: in vivo
[8] = 4 h cold ischemia, group mean ± SD
[9] = 4 h cold ischemia, individual rats, 15 mg/kg s.c./i.v./s.c.
[10] = 6 h cold ischemia, group mean ± SD
[11] = 6 h cold ischemia, individual rats
[12] = 4 h cold ischemia, individual rats, high-power fields (X400)
[13] = 6 h cold ischemia, individual rats, high-power fields (X400)
[14] = 4 h cold ischemia, 24 h after transplantation, individual rats
[15] = 6 h cold ischemia, 24 h after transplantation, individual rats
[16] = individual Brown Norway rats, 20 mg/kg s.c./i.v./s.c.

CC(C)Cc1ccc([C@@H](C)C(=O)NS(C)(=O)=O)cc1 [(R)-ibuprofen methanesulfonamide, R(−)-N-[2-(4-Isobutylphenyl)propionyl]-methanesulfonamide]
Inhibition of the chemotaxis of neutrophils induced by IL-8 (IL-8): selective in vitro inhibitors

CC(C)Cc1ccc([C@@H](C)C(=O)NS(C)(=O)=O)cc1.NCCCC[C@H](N)C(=O)O [DF1681B, R(−)-N-[2-(4-Isobutylphenyl)propionyl]-methanesulfonamide salt of L(+)-lysine]
Plasma Creatinine 16 h [1, 8]: 0.91 ± 0.18° mg/dl | Plasma Creatinine 16 h [1, 9]: 1.09 mg/dL and 0.74 mg/dL and 0.89 mg/dL | Plasma Creatinine 24 h [1, 8]: 0.78 ± 0.19° mg/dl | Plasma Creatinine 24 h [1, 9]: 0.99 mg/dL and 0.64 mg/dL and 0.71 mg/dL | Renal function (plasma creatinine), effect in words ([1]; 4 h ischemic kidneys): protected animals from renal function deterioration | Plasma Creatinine 16 h [1, 10]: 2.23 ± 0.36*Δ mg/dl | Plasma Creatinine 16 h [1, 11]: 2.32 mg/dL and 2.54 mg/dL and 1.84 mg/dL | Plasma Creatinine 24 h [1, 10]: 1.83 ± 0.09 mg/dL | Plasma Creatinine 24 h [1, 11]: 1.89 mg/dL and 1.87 mg/dL and 1.72 mg/dL | Plasma creatinine concentrations, effect in words ([1]; 6 hours ischemia): significantly reduced plasma creatinine concentrations | Granulocytes Inrterstitial [2, 8]: 12.1 ± 3.7 | Granulocytes Intraglom [2, 8]: 9.5 ± 3.9 | Granulocytes Intravasc. [2, 8]: 3.2 ± 4.3 | Granulocytes Periglom. [2, 8]: 5.4 ± 1.5 | Granulocytes Perivasc. [2, 8]: 5.4 ± 2.5 | Granulocytes Inrterstitial [2, 12]: 9.1 ± 6.4 and 11 ± 4.8 and 16.2 ± 8.3 | Granulocytes Intraglom [2, 12]: 7.4 ± 4.7 and 14 ± 15.4 and 7 ± 2.9 | Granulocytes Intravasc. [2, 12]: 1.5 ± 2.4 and 0 and 8 ± 5.3 | Granulocytes Periglom. [2, 12]: 5.3 ± 4.5 and 4 and 7 ± 8 | Granulocytes Perivasc. [2, 12]: 3 ± 0.8 and 8 ± 2.6 and 5.3 ± 4.6 | Granulocyte count in the intraglomerular area, effect in words ([2]; 4 hour cold ischemia): numerically but not significantly lowered | PMN infiltrate, effect in words ([2]; 4 hour cold ischemia): decreases the PMN infiltrate | Granulocytes Inrterstitial [2, 10]: 3 ± 1.7 cells per high-power field | Granulocytes Intraglom [2, 10]: 5.5 ± 2 cells per high-power field | Granulocytes Intravasc. [2, 10]: 1.1 ± 1.7 | Granulocytes Periglom. [2, 10]: 2.1 ± 1.1 | Granulocytes Perivasc. [2, 10]: 4.1 ± 2.9 | Granulocytes Inrterstitial [2, 13]: 2.5 ± 4.6 and 4.8 ± 5.6 and 1.6 ± 1.2 | Granulocytes Intraglom [2, 13]: 5.0 ± 6.0 and 3.7 ± 3.0 and 7.7 ± 6.5 | Granulocytes Intravasc. [2, 13]: 0.2 ± 0.4 and 0 and 3.0 ± 4.0 | Granulocytes Periglom. [2, 13]: 1.0 ± 1.8 and 3.2 ± 1.9 and 2.2 ± 1.2 | Granulocytes Perivasc. [2, 13]: 1.0 ± 1.3 and 6.8 ± 8.9 and 4.5 ± 4.4 | Interstitial inflammatory cells, effect in words ([2]; 6 hour ischemia, p<0.01): significantly lowered | Number of MHC class II cells, effect in words ([3]; 4 and 6 hour ischemia): not affected | MHC II+ interstitial cells [3, 8]: 8.7 ± 3.4 | MHC II+ interstitial cells ([3]; 4 h cold ischemia, individual rats, high-power fields (×400)): 5.1 ± 6.2 and 9.1 ± 2 and 11.9 ± 6.3 | MHC II+ interstitial cells [3, 10]: 14.4 ± 4.7 | MHC II+ interstitial cells ([3]; 6 h cold ischemia, individual rats, high-power fields (×400)): 10.5 ± 4.7 and 13.1 ± 7 and 19.7 ± 3.3 | Histological damage Glomerular (score) [4, 14]: 0 score | Histological damage Interstitial (score) [4, 14]: 2.5 score and 2 score (2×) | Histological damage Tubular (score) [4, 14]: 1.5 score and 0.7 score and 0.5 score | Histological damage Glomerular (score) [4, 8]: 0 score | Histological damage Interstitial (score) [4, 8]: 2 ± 0.3 score | Histological damage Tubular (score) [4, 8]: 0.7 ± 0.6 score | Tubular changes, effect in words ([4]; 4 hour ischemia): attenuated but did not normalize tubular changes | Histological damage Glomerular (score) [4, 15]: 0 score | Histological damage Interstitial (score) [4, 15]: 3 score | Histological damage Tubular (score) [4, 15]: 1.7 score (2×) and 1.2 score | Histological damage Glomerular (score) [4, 10]: 0 score | Histological damage Interstitial (score) [4, 10]: 3 score | Histological damage Tubular (score) [4, 10]: 1.5 ± 0.3 score | Focal ischemic changes in the glomeruli, effect in words ([4]; 6 hour ischemia): prevented | Serum creatinine levels, effect in words ([5]; allogeneic transplant, 20 mg/kg, 16 and 24 hours): significant prevention of increased serum creatinine levels | Plasma Creatinine 16 h [5, 16]: 1.05 mg/dL and 1.2 mg/dL and 1 mg/dL and 0.84 mg/dL and 1.01 mg/dL | Plasma Creatinine 24 h [5, 16]: 1.3 mg/dL and 1.39 mg/dL and 0.87 mg/dL and 0.69 mg/dL and 0.85 mg/dL | Plasma Creatinine 16 h ([5]; group mean, 20 mg/kg): 1.02 mg/dL | Plasma Creatinine 24 h ([5]; group mean, 20 mg/kg): 1.02 mg/dL | Inhibition of chemotaxis in vivo (mouse model): inhibit chemotaxis in vivo | Inhibition of PMN infiltration [6]: inhibit PMN infiltration | Inhibition of PMN infiltration [7]: inhibit PMN infiltration | Inhibition of the chemotaxis of neutrophils induced by IL-8 (IL-8): selective in vitro inhibitors
